According to patent publication US20260042762A1 (Kymera Therapeutics, Inc., priority 2018, published 2026):
Structures can show the parent of a compound that is named as a salt.

Biological target: T1, MerTK (Homo sapiens, UniProt Q12866)
T1 construct: endogenous in cells; host or cells: Jurkat cells
T1 sequence (Q12866 21-999): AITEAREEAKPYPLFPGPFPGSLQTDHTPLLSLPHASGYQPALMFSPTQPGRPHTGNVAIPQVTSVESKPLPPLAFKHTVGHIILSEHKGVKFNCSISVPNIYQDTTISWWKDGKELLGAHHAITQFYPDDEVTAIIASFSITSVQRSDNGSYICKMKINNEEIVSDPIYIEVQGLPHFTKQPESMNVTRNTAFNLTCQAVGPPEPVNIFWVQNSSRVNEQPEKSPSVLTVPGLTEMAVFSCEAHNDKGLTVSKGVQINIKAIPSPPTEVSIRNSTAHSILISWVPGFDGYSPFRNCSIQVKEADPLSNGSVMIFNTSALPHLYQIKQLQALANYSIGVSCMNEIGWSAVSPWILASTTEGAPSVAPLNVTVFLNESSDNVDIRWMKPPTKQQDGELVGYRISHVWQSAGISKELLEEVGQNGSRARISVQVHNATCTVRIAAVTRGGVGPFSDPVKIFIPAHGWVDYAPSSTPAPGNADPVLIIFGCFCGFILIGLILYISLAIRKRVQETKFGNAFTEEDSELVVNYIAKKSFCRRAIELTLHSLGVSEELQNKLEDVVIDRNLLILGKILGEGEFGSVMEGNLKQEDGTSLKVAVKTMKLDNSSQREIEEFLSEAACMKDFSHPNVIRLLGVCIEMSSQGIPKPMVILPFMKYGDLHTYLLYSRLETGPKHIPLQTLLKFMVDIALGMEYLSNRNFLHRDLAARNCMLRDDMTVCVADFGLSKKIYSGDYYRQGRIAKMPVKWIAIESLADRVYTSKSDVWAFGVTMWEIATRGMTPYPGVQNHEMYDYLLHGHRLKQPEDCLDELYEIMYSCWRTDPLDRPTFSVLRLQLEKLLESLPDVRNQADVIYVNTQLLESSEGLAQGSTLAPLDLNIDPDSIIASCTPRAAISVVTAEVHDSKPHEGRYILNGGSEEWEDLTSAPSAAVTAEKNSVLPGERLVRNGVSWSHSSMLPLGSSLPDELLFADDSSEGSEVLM
Assay: MerTk degradation in Jurkat cells (Western blot)
Format: cell-based
Conditions: Jurkat, 4 h, 0.001-1 μM, 4 hour-incubation at 37° C., read-out: Jurkat Max % MerTK Degradation
Summary of the method: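 Jurkat cells treated 4 h at 37 °C with compound at 0.001-1 μM final. RIPA lysates quantified by BCA, then MerTK probed by Western blot against actin loading control with IR-dye secondaries and Odyssey imaging.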

Row | Structure (SMILES) | Dmax [%]
1 | C[C@@H](CC(F)(F)F)Nc1ncc2c(-c3ccc(CN4CCN(CCCOCCCc5ccc6c(c5)n(C)c(=O)n6C5CCC(=O)N(C)C5=O)CC4)cc3)cn([C@H]3CC[C@H](O)CC3)c2n1 (stereo partly drawn) [I-225, 1-methyl-3-[3-methyl-2-oxo-5-[3-(3-[4-[(4-[7-[trans-4-hydroxycyclohexy1]-2-[[(2S)-4,4,4-trifluorobutan-2-yl]amino]pyrrolo[2,3-d]pyrimidin-5-yl]phenyl)methyl]piperazin-1-yl]propoxy)propyl]-1,3-benzodiazol-1-yl]piperidine-2,6-dione] | < 20
2 | Cn1c(=O)n(C2CCC(=O)NC2=O)c2ccc(CCCCN3CCC(N4CCN(Cc5ccc(-c6cn([C@H]7CC[C@H](O)CC7)c7nc(NCCC(F)(F)F)ncc67)cc5)CC4)C3)cc21 (stereo partly drawn) [I-123, 3-[3-methyl-2-oxo-5-[4-(3-[4-[(4-[7-[trans-4-hydroxycyclohexyl]-2-[(3,3,3-trifluoropropyl)amino]-7H-pyrrolo[2,3-d]pyrimidin-5-yl]phenyl)methyl]piperazin-1-yl]pyrrolidin-1-yl)butyl]-2,3-dihydro-1H-1,3-benzodiazol-1-yl]piperidine-2,6-dione; formic acid] | > 50
3 | COC[C@@H](C)Nc1ncc2c(-c3ccc(CN4CCN(CCOCCOCCOCCOCCNc5cccc6c5n(C)c(=O)n6C5CCC(=O)NC5=O)CC4)cc3)cn([C@H]3CC[C@H](O)CC3)c2n1 (stereo partly drawn) [I-5, Trans-3-[4-[15-(4-[[4-(2-[[(2R)-1-methoxypropan-2-yl]amino]-7-[4-hydroxycyclohexyl]-7H-pyrrolo[2,3-d]pyrimidin-5-yl)phenyl]methyl]piperazin-1-yl)-4,7,10,13-tetraoxa-1-azapentadecan-1-yl]-3-methyl-2-oxo-2,3-dihydro-1H-1,3-benzodiazol-1-yl]piperidine-2,6-dione bis(formic acid)] | < 20
4 | Cn1c(=O)n([C@H]2CCC(=O)NC2=O)c2ccc(CCn3cc(CN4CCN(Cc5ccc(-c6cn([C@H]7CC[C@H](O)CC7)c7nc(NCCC(F)(F)F)ncc67)cc5)CC4)nn3)cc21 [I-114, 3-(3-methyl-2-oxo-5-[12-[4-([4-1(4-[17-[trans-4-hydroxycyclohexyl]-2-[(3,3,3-trifluoropropyl)aminol-7H-pyrrolo[2,3-d]pyrimidin-5-yl]phenyl)methyl]piperazin-1-yl]methyl)-1H-1,2,3-triazol-1-yl]ethyl]-2,3-dihydro-1H-1,3-benzodiazol-1-yl)piperidine-2,6-dione] | > 50
5 | Cn1c(=O)n([C@H]2CCC(=O)NC2=O)c2ccc(CCCN3CC(C4CCN(Cc5ccc(-c6cn([C@H]7CC[C@H](O)CC7)c7nc(NCCC(F)(F)F)ncc67)cc5)CC4)C3)cc21 [I-136, 3-[3-methyl-2-oxo-5-[3-(3-[1-[(4-[7-[trans-4-hydroxycyclohexyl]-2-[(3,3,3-trifluoropropyl)amino]pyrrolo[2,3-d]pyrimidin-5-yl]phenyl)methyl]piperidin-4-yl]azetidin-1-yl)propyl]-1,3-benzodiazol-1-y1]piperidine-2,6-dione; tris(formic acid)] | > 50
6 | Cn1c(=O)n([C@H]2CCC(=O)NC2=O)c2ccc(CCCOCCCCN3CCN(Cc4ccc(-c5cn(C6CCCCC6)c6nc(NCCC(F)(F)F)ncc56)cc4)CC3)cc21 [I-84, 3-[5-[3-(4-[4-[(4-[7-cyclohexy1-2-[(3,3,3-trifluoropropyl)amino]-7H-pyrrolo[2,3-d]pyrimidin-5-y1]phenyl)methyl]piperazin-1-yl]butoxy)propyl]-3-methyl-2-oxo-2,3-dihydro-1H-1,3-benzodiazol-1-yl]piperidine-2,6-dione] | > 50
7 | CCCCNc1ncc2c(-c3ccc(CNCCCCOCCCCc4ccc5c(c4)n(C)c(=O)n5[C@H]4CCC(=O)NC4=O)cc3)cn([C@H]3CC[C@H](O)CC3)c2n1 [I-53, 3-[5-(4-[4-[([4-[2-(butylamino)-7-[trans-4-hydroxycyclohexyl]-7H-pyrrolo[2,3-d]pyrimidin-5-yl]phenyl]methyl)amino]butoxy]butyl)-3-methyl-2-oxo-2,3-dihydro-1H-1,3-benzodiazol-1-yl]piperidine-2,6-dione hydrochloride] | > 50
8 | O=C1CC[C@H](n2c3ccc(NCCOCCOCCNCc4ccc(-c5cn([C@H]6CC[C@H](O)CC6)c6nc(NCCC(F)(F)F)ncc56)cc4)cc3c3cccnc32)C(=O)N1 [I-99, 3-[6-[11-(4-[7-[trans-4-hydroxycyclohexyl]-2-[(3,3,3-trifluoropropyl)amino]-7H-pyrrolo[2,3-d]pyrimidin-5-yl]phenyl)-4,7-dioxa-1,10-diazaundecan-1-y1]-9H-pyrido[2,3-b]indol-9-yl]piperidine-2,6-dione; trihydrochloride] | > 50
9 | Cn1c(=O)n([C@H]2CCC(=O)NC2=O)c2ccc(CCCOCCOC3CCN(C[C@H]4CC[C@@H](c5cn([C@H]6CC[C@H](O)CC6)c6nc(NCCC(F)(F)F)ncc65)CC4)CC3)cc21 [I-171, 3-[3-methyl-2-oxo-5-(3-[2-[(1-[[cis-4-[7-[trans-4-hydroxycyclohexyl]-2-[(3,3,3-trifluoropropyl)amino]pyrrolo[2,3-d]pyrimidin-5-yl]cyclohexyl]methyl]piperidin-4-yl)oxy]ethoxy]propyl)-1,3-benzodiazol-1-y1]piperidine-2,6-dione] | > 50
10 | Cn1c(=O)n([C@H]2CCC(=O)NC2=O)c2ccc(CCCOCCOCCOCCN3CCN(Cc4ccc(-c5nn([C@H]6CC[C@H](O)CC6)c6nc(NCCC(F)(F)F)ncc56)cc4)CC3)cc21 [I-63, 3-[3-methyl-2-oxo-5-(3-[2-[2-(2-[4-[(4-[1-[trans-4-hydroxycyclohexyl]-6-[(3,3,3-trifluoropropyl)amino]-1H-pyrazolo[3,4-d]pyrimidin-3-yl]phenyl)methyl]piperazin-1-yl]ethoxy)ethoxy]ethoxy]propyl)-2,3-dihydro-1H-1,3-benzodiazol-1-yl]piperidine-2,6-dione; formic acid] | > 50
11 | Cn1c(=O)n([C@H]2CCC(=O)NC2=O)c2cccc(COCCCN3CCN(Cc4ccc(-c5cn([C@H]6CC[C@H](O)CC6)c6nc(NCCC(F)(F)F)ncc56)cc4)CC3)c21 [I-150, 3-[3-methyl-2-oxo-4-[(3-[4-[(4-[7-[trans-4-hydroxycyclohexyl]-2-[(3,3,3-trifluoropropyl)amino]pyrrolo[2,3-d]pyrimidin-5-yl]phenyl)methyl]piperazin-1-y1]propoxy)methyl]-1,3-benzodiazol-1-yl]piperidine-2,6-dione] | > 50
12 | Cn1c(=O)n([C@H]2CCC(=O)NC2=O)c2ccc(CN3CC(OCCN4CCN(Cc5ccc(-c6cn([C@H]7CC[C@H](O)CC7)c7nc(NCCC(F)(F)F)ncc67)cc5)CC4)C3)cc21 [I-109, 3-(3-methyl-2-oxo-5-[[3-(2-[4-[(4-[7-[trans-4-hydroxycyclohexyl]-2-[(3,3,3-trifluoropropyl)amino]-7H-pyrrolo[2,3-d]pyrimidin-5-y1]phenyl)methyl]piperazin-1-yl]ethoxy)azetidin-1-yl]methyl]-2,3-dihydro-1H-1,3-benzodiazol-1-y1)piperidine-2,6-dione] | < 20
13 | Cn1c(=O)n([C@H]2CCC(=O)NC2=O)c2ccc(CCCOCCOCCOCCN3CCN(Cc4ccc(-c5cn([C@H]6CC[C@H](O)CC6)c6nc(NCCC(F)(F)F)ncc56)cc4)CC3)cc21 [I-55, 3-[3-methyl-2-oxo-5-(3-[2-[2-(2-[4-[(4-[7-[trans-4-hydroxycyclohexyl]-2-[(3,3,3-trifluoropropyl)amino]-7H-pyrrolo[2,3-d]pyrimidin-5-yl]phenyl)methyl]piperazin-1-yl]ethoxy)ethoxy]ethoxy]propyl)-2,3-dihydro-1H-1,3-benzodiazol-1-yl]piperidine-2,6-dione] | > 50
14 | CCCCNc1ncc2c(C3CCN(CCOCCOCCOCCOCCCc4ccc5c(c4)n(C)c(=O)n5[C@H]4CCC(=O)NC4=O)CC3)cn([C@H]3CC[C@H](O)CC3)c2n1 [I-97, 3-[5-(1-[4-[2-(butylamino)-7-[trans-4-hydroxycyclohexyl]-7H-pyrrolo[2,3-d]pyrimidin-5-y1]piperidin-1-y1]-3,6,9,12-tetraoxapentadecan-15-y1)-3-methyl-2-oxo-2,3-dihydro-1H-1,3-benzodiazol-1-y1]piperidine-2,6-dione; bis(formic acid)] | > 50
15 | C[C@H](CC(F)(F)F)Nc1ncc2c(-c3ccc(CN4CCN(CCCOC5CN(Cc6ccc7c(c6)n(C)c(=O)n7C6CCC(=O)NC6=O)C5)CC4)cc3)cn([C@H]3CC[C@H](O)CC3)c2n1 (stereo partly drawn) [I-200, trans-3-(3-methyl-2-oxo-5-[[3-(3-[4-[(4-[7-[4-hydroxycyclohexyl]-2-[[(2R)-4,4,4-trifluorobutan-2-yl]amino]pyrrolo[2,3-d]pyrimidin-5-yl]phenyl)methyl]piperazin-1-yl]propoxy)azetidin-1-y1]methyl]-1,3-benzodiazol-1-y1)piperidine-2,6-dione; tris(formic acid)] | > 50
